Measured values published in patent US8916183B2, “Pesticidal compositions and processes related thereto” (priority 2012, dated 2014).
Where two headings read alike, the source gives them in different places.

How the values were obtained:
Type in all cases: in vivo
[1] = system: Beet Armyworm (BAW) (Spodoptera exigua); assay: Bioassay on beet armyworm (BAW), 128-well diet tray assay; conditions: for mortality at 50 µg/cm2: Spodoptera exigua, read-out: % Mortality BAW 50 μg/cm^2
[2] = system: Corn Earworm (CEW) (Helicoverpa zea); assay: Bioassay on corn earworm (CEW), 128-well diet tray assay; conditions: for mortality at 50 µg/cm2: Helicoverpa zea, read-out: % Mortality CEW 50 μg/cm^2
Outline: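 Activity was scored as percent larval mortality per well, averaged across eight wells and reported on a rating scale. Diet trays (128-well) were kept at 25° C with 14:10 light-dark for five to seven days.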

[3] = system: Green Peach Aphid (GPA) (Myzus persicae); assay: Bioassay on green peach aphid (GPA), foliar spray on cabbage seedlings; conditions: read-out: % Mortality GPA 200 ppm
Procedure: Certain molecules disclosed in this document were tested against GPA using procedures described in the following example. In the reporting of the results, the “GPA Rating Table” was used (See Table Section).
Cabbage seedlings grown in 3-inch pots, with 2-3 small (3-5 cm) true leaves, were used as test substrate. The seedlings were infested with 20-50 GPA (wingless adult and nymph stages) one day prior to chemical application. Four pots with individual seedlings were used for each treatment. Test compounds (2 mg) were dissolved in 2 mL of acetone/methanol (1:1) solvent, forming stock solutions of 1000 ppm test compound. […] A hand-held aspirator-type sprayer was used for spraying a solution to both sides of […] leaves until runoff. Reference plants (solvent check) were sprayed with the diluent only containing 20% by volume of acetone/methanol (1:1) solvent. Treated plants were held in a holding room for three days at approximately 25° C. and ambient relative humidity (RH) prior to grading. Evaluation was conducted by counting the number of live aphids per plant under a microscope. […] Corrected % Control=100*(X−Y)/X • where • X=No. of live aphids on solvent check plants and • Y=No. of live aphids on treated plants
The results are indicated in the table entitled “Table 5: Biological Results” (See Table Section).

Row | Structure (SMILES) | mortality at 50 µg/cm2 ([1]; beet armyworm, 50 μg/cm^2) [%] | mortality at 50 µg/cm2 ([2]; corn earworm, 50 μg/cm^2) [%] | mortality at 200 ppm ([3]; green peach aphid, 200 ppm) [%] | % Mortality BAW 50 μg/cm^2 ([1]; beet armyworm, 50 μg/cm^2) | % Mortality CEW 50 μg/cm^2 ([2]; corn earworm, 50 μg/cm^2) | mortality at 50 µg/cm2 [1] [%] | mortality at 50 µg/cm2 [2] [%] | mortality at 200 ppm [3] [%]
1 | O=C1CS/C(=N\N=C\c2ccc(-c3ncn(-c4ccc(OC(F)(F)F)cc4)n3)cc2)N1c1c(F)cccc1F [Compound 89C] | 50 to 100 | 50 to 100 | 0 |  |  |  |  | 
2 | COc1cc(C)c(/N=C(/N/N=C/c2ccc(-c3ncn(-c4ccc(OC(F)(F)F)cc4)n3)cc2)SCOC(=O)C2CCCO2)c(C)c1 (stereo not drawn) [Compound 44C] | 50 to 100 | 50 to 100 | 0 |  |  |  |  | 
3 | FC(F)(F)Oc1ccc(-n2cnc(-c3ccc(/C=N/N=C4\SCCCN4c4ccccc4-c4ccccc4)cc3)n2)cc1 [Compound 194C] | 50 to 100 | 50 to 100 | 0 to 80 |  |  |  |  | 
4 | Cc1cccc(C)c1/N=C(/N/N=C/c1ccc(-c2ncn(-c3ccc(OC(F)(F)F)cc3)n2)cc1)SCc1cccc2nsnc12 [Compound 14C] | 50 to 100 | 50 to 100 | 0 to 80 |  |  |  |  | 
5 | COc1cc(C)c(-n2c(C(=O)O)cs/c2=N\N=Cc2ccc(-c3ncn(-c4ccc(OC(F)(F)F)cc4)n3)cc2)c(C)c1 [Compound 80C] | 50 to 100 | 50 to 100 | 0 |  |  |  |  | 
6 | Cc1ccc(C(C)C)c(N2/C(=N/N=C/c3ccc(-c4ncn(-c5ccc(OC(F)(F)F)cc5)n4)cc3)SCC2(C)O)c1 (stereo not drawn) [Compound 253C] | 50 to 100 | 50 to 100 | 0 |  |  |  |  | 
7 | FC(F)(F)Oc1ccc(-n2cnc(-c3ccc(/C=N/N=C4\SCCCN4c4c(Cl)cccc4Cl)cc3)n2)cc1 [Compound 187C] | 50 to 100 | 50 to 100 | 0 |  |  |  |  | 
8 | Cc1cccc(C)c1/N=C(/N/N=C/c1ccc(-c2ncn(-c3ccc(OC(F)(F)F)cc3)n2)cc1)SCc1ccccc1F [Compound 11C] | 50 to 100 | 50 to 100 | 0 |  |  |  |  | 
9 | Cc1cccc(C)c1/N=C(/N/N=C/c1ccc(-c2ncn(-c3ccc(OC(F)(F)F)cc3)n2)cc1)SCc1cc2c(C(F)(F)F)nn(C)c2s1 [Compound 19C] | 50 to 100 | 50 to 100 | 0 to 80 |  |  |  |  | 
10 | Cc1ccccc1-n1c(C)cs/c1=N\N=C\c1ccc(-c2ncn(-c3ccc(OC(F)(F)F)cc3)n2)cc1 [Compound 173C] | 50 to 100 | 50 to 100 | 0 |  |  |  |  | 
11 | COc1cc(C)c(/N=C(/N/N=C/c2ccc(-c3ncn(-c4ccc(OC(F)(F)C(F)(F)F)cc4)n3)cc2)SCOC(=O)C(C)C)c(C)c1 [Compound 37C] | 50 to 100 | 50 to 100 | 0 |  |  |  |  | 
12 | CCc1ccccc1N1CCCS/C1=N\N=C\c1ccc(-c2ncn(-c3ccc(OC(F)(F)F)cc3)n2)cc1 [Compound 185C] | 50 to 100 | 50 to 100 | 0 |  |  |  |  | 
13 | COc1cc(C)c(/N=C(/N/N=C/c2ccc(-c3ncn(-c4ccc(OC(F)(F)F)cc4)n3)cc2)SCC(=O)O)c(C)c1.[Na+] [Compound 68C, 2-(((Z)-((4-methoxy-2,6-dimethylphenyl)imino)((E)-2-(4-(1-(4-(trifluoromethoxy)phenyl)-1H-1,2,4-triazol-3-yl)benzylidene)hydrazinyl)methyl)-thio)acetic acid sodium salt] |  |  | 0 to 80 | A (50-100) | A (50-100) |  |  | 
14 | Cc1cccc(C)c1/N=C(/N/N=C/c1ccc(-c2ncn(-c3ccc(OC(F)(F)F)cc3)n2)cc1)SCOC(=O)CNC(=O)OCc1ccccc1 [Compound 23C] |  |  |  |  |  | 50 to 100 | 50 to 100 | 0
15 | Cc1ccccc1N1CCCS/C1=N\N=C\c1ccc(-c2ncn(-c3ccc(OC(F)(F)F)cc3)n2)cc1 [Compound 195C] | 50 to 100 | 50 to 100 | 0 to 80 |  |  |  |  | 
16 | Cc1cccc(C)c1-n1c(-c2cc(-c3ccc(Cl)cc3)no2)cs/c1=N\N=C\c1ccc(-c2ncn(-c3ccc(OC(F)(F)F)cc3)n2)cc1 [Compound 76C] | 50 to 100 | 50 to 100 | 0 to 80 |  |  |  |  | 
17 | CC(C)c1ccccc1N1CCCS/C1=N\N=C\c1ccc(-c2ncn(-c3ccc(OC(F)(F)F)cc3)n2)cc1 [Compound 177C] | 50 to 100 | 50 to 100 | 0 |  |  |  |  | 
18 | Cc1cc(C)c(N2CCCS/C2=N\N=C\c2ccc(-c3ncn(-c4ccc(OC(F)(F)F)cc4)n3)cc2)c(C)c1 [Compound 184C] | 50 to 100 | 50 to 100 | 0 |  |  |  |  | 

Row | Structure (SMILES) | mortality at 50 µg/cm2 ([1]; beet armyworm, 50 μg/cm^2) [%] | mortality at 50 µg/cm2 ([2]; corn earworm, 50 μg/cm^2) [%] | mortality at 200 ppm ([3]; green peach aphid, 200 ppm) [%] | % Mortality BAW 50 μg/cm^2 ([1]; beet armyworm, 50 μg/cm^2) | % Mortality CEW 50 μg/cm^2 ([2]; corn earworm, 50 μg/cm^2) | mortality at 50 µg/cm2 [1] [%] | mortality at 50 µg/cm2 [2] [%] | mortality at 200 ppm [3] [%]
19 | Cc1cccc(C)c1-n1c(-c2ccc(C(=O)O)cc2)cs/c1=N\N=Cc1ccc(-c2ncn(-c3ccc(OC(F)(F)F)cc3)n2)cc1 [Compound 77C] | 50 to 100 | 50 to 100 | 0 to 80 |  |  |  |  | 
20 | CCc1cccc(C)c1N1/C(=N/N=C/c2ccc(-c3ncn(-c4ccc(OC(F)(F)F)cc4)n3)cc2)SCC1C (stereo not drawn) [Compound 156C] | 50 to 100 | 50 to 100 | 0 to 80 |  |  |  |  | 
21 | Cc1cccc(C)c1/N=C(/N/N=C/c1ccc(-c2ncn(-c3ccc(OC(F)(F)F)cc3)n2)cc1)SCC(=O)NCC(N)C(=O)O (stereo not drawn) [Compound 63C] | 50 to 100 | 50 to 100 | 0 |  |  |  |  | 
22 | Cc1cccc(C)c1/N=C(/N/N=C/c1ccc(-c2ncn(-c3ccc(OC(F)(F)F)cc3)n2)cc1)SCOC(=O)C(C)(C)C [Compound 36C] | 50 to 100 | 50 to 100 | 0 |  |  |  |  | 
23 | CCC(C)c1ccccc1N1CCCS/C1=N\N=C\c1ccc(-c2ncn(-c3ccc(OC(F)(F)F)cc3)n2)cc1 (stereo not drawn) [Compound 183C] | 50 to 100 | 50 to 100 | 0 |  |  |  |  | 
24 | COc1cc(C)c(N2CCCS/C2=N\N=C\c2ccc(-c3ncn(-c4ccc(OC(F)(F)F)cc4)n3)cc2)c(C)c1 [Compound 181C] | 50 to 100 | 50 to 100 | 0 to 80 |  |  |  |  | 
25 | CCS/C(=N\c1c(Cl)cccc1Cl)N/N=C/c1ccc(-c2ncn(-c3ccc(OC(F)(F)F)cc3)n2)cc1 [Compound 2C] | 50 to 100 | 50 to 100 | 0 |  |  |  |  | 
26 | Cc1cccc(C)c1/N=C(/N/N=C/c1ccc(-c2ncn(-c3ccc(OC(F)(F)F)cc3)n2)cc1)SCOC(=O)C(C)C [Compound 25C] | 50 to 100 | 50 to 100 | 0 |  |  |  |  | 
27 | Cc1cccc(C)c1-n1c(-c2ccc(OC(F)(F)F)cc2)cs/c1=N\N=Cc1ccc(-c2ncn(-c3ccc(OC(F)(F)F)cc3)n2)cc1 [Compound 78C] | 50 to 100 | 50 to 100 | 0 to 80 |  |  |  |  | 
28 | Cc1cccc(C)c1N1CCCCS/C1=N\N=C\c1ccc(-c2ncn(-c3ccc(OC(F)(F)F)cc3)n2)cc1 [Compound 211C] | 50 to 100 | 50 to 100 | 0 |  |  |  |  | 
29 | FC(F)(F)Oc1ccc(-n2cnc(-c3ccc(/C=N/N=C4\SCCN4c4c(Cl)cccc4C(F)(F)F)cc3)n2)cc1 [Compound 149C] | 50 to 100 | 50 to 100 | 0 |  |  |  |  | 
30 | Cc1cccc(C)c1/N=C(/N/N=C/c1ccc(-c2ncn(-c3ccc(OC(F)(F)F)cc3)n2)cc1)SCOC(=O)C1CCCC1 [Compound 35C] | 50 to 100 | 50 to 100 | 0 to 80 |  |  |  |  | 
31 | COc1ccccc1N1CCS/C1=N\N=C\c1ccc(-c2ncn(-c3ccc(OC(F)(F)F)cc3)n2)cc1 [Compound 140C] | 50 to 100 | 50 to 100 | 0 to 80 |  |  |  |  | 
32 | O=C1CS/C(=N\N=C\c2ccc(-c3ncn(-c4ccc(OC(F)(F)F)cc4)n3)cc2)N1c1ccccc1-c1ccccc1 [Compound 96C] | 50 to 100 | 50 to 100 | 0 to 80 |  |  |  |  | 
33 | Cc1ccccc1N1/C(=N/N=C/c2ccc(-c3ncn(-c4ccc(OC(F)(F)F)cc4)n3)cc2)SCC1(C)O (stereo not drawn) [Compound 248C] | 50 to 100 | 50 to 100 | 0 to 80 |  |  |  |  | 
34 | CC(C)c1ccccc1N1/C(=N/N=C/c2ccc(-c3ncn(-c4ccc(C(F)(F)F)cc4)n3)cc2)SCC1(C)O (stereo not drawn) [Compound 261C] | 50 to 100 | 50 to 100 | 0 |  |  |  |  | 
35 | FC(F)(F)Oc1ccc(-n2cnc(-c3ccc(/C=N/N=C4\SCCN4c4ccccc4C4CC4)cc3)n2)cc1 [Compound 145C] | 50 to 100 | 50 to 100 | 0 to 80 |  |  |  |  | 
36 | CC(C)Cc1ccccc1N1CCCS/C1=N\N=C\c1ccc(-c2ncn(-c3ccc(OC(F)(F)F)cc3)n2)cc1 [Compound 193C] | 50 to 100 | 50 to 100 | 0 to 80 |  |  |  |  | 
